{
  "source": "patent US10669305B2",
  "about": "“C-3 novel triterpenone with C-28 urea derivatives as HIV inhibitors” (Hetero Labs Limited, priority 2015, dated 2020)",
  "tested_on": "HIV-1 strain 92HT599",
  "assay": "Antiviral activity, p24 estimation in HIV-1 92HT599 infected MT2 cells",
  "format": "cell-based",
  "conditions": "~96 hours",
  "protocol": "MT2 cells were infected with HIV-1 strain 92HT599 (10 TCID 50/30000 cells). The infected cells were plated at the concentration of ˜30,000 cells per well in 96 well plate. Test compound was added to the micro plate in defined format with the final concentration of DMSO (vehicle) is not more than 1%. Incubation was carried out in CO2 incubator for ˜96 hours for viral infection. At the end of incubation period an aliquot from each well was taken for p24 estimation. The quantitation of p24 is an index for antiviral activity of the compound. Percent inhibition was calculated with reference to control values (vehicle controls). P-24 estimation was carried out using Advance biosciences kit as per the procedure detailed by supplier.",
  "key": {"[1]": {"conditions": "Human immunodeficiency virus 1, 0% serum, read-out: 92HT599-Antiviral activity IC50 (nM) 0%"}, "[2]": {"conditions": "Human immunodeficiency virus 1, 40% serum, read-out: 92HT599-Antiviral activity IC50 (nM) 40%"}},
  "note": "Where a name gives a salt, the structure may show the parent alone. Read-outs that look alike come from different tables or passages of the source.",
  "data": [
    {"smiles": "CC(C)C1=C2[C@H]3CC[C@@H]4[C@@]5(C)CC[C@H](OC(=O)[C@H]6C[C@@H](C(=O)O)C6(C)C)C(C)(C)[C@@H]5CC[C@@]4(C)[C@]3(C)CC[C@@]2(NC(=O)N(CCN(C)C)Cc2ccc(Cl)cc2)CC1=O", "note": "[Example 1, (1R,3S)-3-((((3aR,5aR,5bR,7aR,9S,11aR,11bR,13aS)-3a-(3-(4-chlorobenzyl)-3-(2-(dimethylamino)ethyl)ureido)-1-isopropyl-5a,5b,8,8,11a-pentamethyl-2-oxo-3,3a,4,5,5a,5b,6,7,7a,8,9,10,11,11a,11b,12,13,13a-octadecahydro-2H-cyclopenta[a]chrysen-9-yl)oxy)carbonyl)-2,2-dimethylcyclobutane-1-carboxylic acid hydrochloride]", "values": [
      {"measurement": "IC50", "setting": "[1]", "result": "< 5", "unit": "nM"},
      {"measurement": "IC50", "setting": "[2]", "result": "> 50", "unit": "nM"}
    ]},
    {"smiles": "CC(C)C1=C2[C@H]3CC[C@@H]4[C@@]5(C)CC[C@H](OC(=O)[C@H]6C[C@@H](C(=O)O)C6(C)C)C(C)(C)[C@@H]5CC[C@@]4(C)[C@]3(C)CC[C@@]2(NC(=O)NC(C)(C)c2ncc(-c3ccccc3)[nH]2)CC1=O", "note": "[Example 10, (1R,3S)-3-((((3aR,5aR,5bR,7aR,9S,11aR,11bR,13aS)-1-isopropyl-5a,5b,8,8,11a-pentamethyl-2-oxo-3a-(3-(2-(5-phenyl-1H-imidazol-2-yl)propan-2-yl)ureido)-3,3a,4,5,5a,5b,6,7,7a,8,9,10,11,11a,11b,12,13,13a-octadecahydro-2H-cyclopenta[a]chrysen-9-yl)oxy)carbonyl)-2,2-dimethylcyclobutane-1-carboxylic acid]", "values": [
      {"measurement": "IC50", "setting": "[1]", "result": "< 5", "unit": "nM"},
      {"measurement": "IC50", "setting": "[2]", "result": "< 30", "unit": "nM"}
    ]},
    {"smiles": "CC(C)C1=C2[C@H]3CC[C@@H]4[C@@]5(C)CC[C@H](OC(=O)[C@H]6C[C@@H](C(=O)O)C6(C)C)C(C)(C)[C@@H]5CC[C@@]4(C)[C@]3(C)CC[C@@]2(NC(=O)N(CCN2CCCCC2)Cc2ccc(Cl)cc2)CC1=O", "note": "[Example 11, (1R,3S)-3-((((3aR,5aR,5bR,7aR,9S,11aR,11bR,13aS)-3a-(3-(4-chlorobenzyl)-3-(2-(piperidin-1-yl)ethyl)ureido)-1-isopropyl-5a,5b,8,8,11a-pentamethyl-2-oxo-3,3a,4,5,5a,5b,6,7,7a,8,9,10,11,11a,11b,12,13,13a-octadecahydro-2H-cyclopenta[a]chrysen-9-yl)oxy)carbonyl)-2,2-dimethylcyclobutane-1-carboxylic acid hydrochloride]", "values": [
      {"measurement": "IC50", "setting": "[1]", "result": "< 5", "unit": "nM"},
      {"measurement": "IC50", "setting": "[2]", "result": "30 to 50", "unit": "nM"}
    ]},
    {"smiles": "CC(C)C1=C2[C@H]3CC[C@@H]4[C@@]5(C)CC[C@H](OC(=O)[C@H]6C[C@@H](C(=O)O)C6(C)C)C(C)(C)[C@@H]5CC[C@@]4(C)[C@]3(C)CC[C@@]2(NC(=O)N2CCC[C@H]2CN2CCCC2)CC1=O", "note": "[Example 13, (1R,3S)-3-((((3aR,5aR,5bR,7aR,9S,11aR,11bR,13aS)-1-isopropyl-5a,5b,8,8,11a-pentamethyl-2-oxo-3a-((S)-2-(pyrrolidin-1-ylmethyl)pyrrolidine-1-carboxamido)-3,3a,4,5,5a,5b,6,7,7a,8,9,10,11,11a,11b,12,13,13a-octadecahydro-2H-cyclopenta[a]chrysen-9-yl)oxy)carbonyl)-2,2-dimethylcyclobutane-1-carboxylic acid]", "values": [
      {"measurement": "IC50", "setting": "[1]", "result": "< 5", "unit": "nM"},
      {"measurement": "IC50", "setting": "[2]", "result": "> 50", "unit": "nM"}
    ]},
    {"smiles": "CC(C)C1=C2[C@H]3CC[C@@H]4[C@@]5(C)CC[C@H](OC(=O)[C@H]6C[C@@H](C(=O)O)C6(C)C)C(C)(C)[C@@H]5CC[C@@]4(C)[C@]3(C)CC[C@@]2(NC(=O)N(CCN(C)C)CC2(c3ccc(Cl)cc3)CC2)CC1=O", "note": "[Example 6, (1R,3S)-3-((((3aR,5aR,5bR,7aR,9S,11aR,11bR,13aS)-3a-(3-((1-(4-chlorophenyl)cyclopropyl)methyl)-3-(2-(dimethylamino)ethyl)ureido)-1-isopropyl-5a,5b,8,8,11a-pentamethyl-2-oxo-3,3a,4,5,5a,5b,6,7,7a,8,9,10,11,11a,11b,12,13,13a-octadecahydro-2H-cyclopenta[a]chrysen-9-yl)oxy)carbonyl)-2,2-dimethylcyclobutane-1-carboxylic acid]", "values": [
      {"measurement": "IC50", "setting": "[1]", "result": "< 5", "unit": "nM"},
      {"measurement": "IC50", "setting": "[2]", "result": "30 to 50", "unit": "nM"}
    ]},
    {"smiles": "CC(C)C1=C2[C@H]3CC[C@@H]4[C@@]5(C)CC[C@H](OC(=O)[C@H]6C[C@@H](C(=O)O)C6(C)C)C(C)(C)[C@@H]5CC[C@@]4(C)[C@]3(C)CC[C@@]2(NC(=O)N2CCC[C@H]2c2ncc(-c3ccccc3)n2CCN(C)C)CC1=O", "note": "[Example 2, (1R,3S)-3-((((3aR,5aR,5bR,7aR,9S,11aR,11bR,13aS)-3a-((S)-2-(1-(2-(dimethylamino)ethyl)-5-phenyl-1H-imidazol-2-yl)pyrrolidine-1-carboxamido)-1-isopropyl-5a,5b,8,8,11a-pentamethyl-2-oxo-3,3a,4,5,5a,5b,6,7,7a,8,9,10,11,11a,11b,12,13,13a-octadecahydro-2H-cyclopenta[a]chrysen-9-yl)oxy)carbonyl)-2,2-dimethylcyclobutane-1-carboxylic acid]", "values": [
      {"measurement": "IC50", "setting": "[1]", "result": "< 5", "unit": "nM"},
      {"measurement": "IC50", "setting": "[2]", "result": "< 30", "unit": "nM"}
    ]},
    {"smiles": "Cc1nnc(C(C)C)n1CCN1CCN(C(=O)N[C@@]23CC[C@]4(C)[C@H](CC[C@@H]5[C@@]6(C)CC[C@H](OC(=O)[C@H]7C[C@@H](C(=O)O)C7(C)C)C(C)(C)[C@@H]6CC[C@]54C)C2=C(C(C)C)C(=O)C3)CC1", "note": "[Example 12, (1R,3S)-3-((((3aR,5aR,5bR,7aR,9S,11aR,11bR,13aS)-1-isopropyl-3a-(4-(2-(3-isopropyl-5-methyl-4H-1,2,4-triazol-4-yl)ethyl)piperazine-1-carboxamido)-5a,5b,8,8,11a-pentamethyl-2-oxo-3,3a,4,5,5a,5b,6,7,7a,8,9,10,11,11a,11b,12,13,13a-octadecahydro-2H-cyclopenta[a]chrysen-9-yl)oxy)carbonyl)-2,2-dimethycyclobutane-1-carboxylic acid]", "values": [
      {"measurement": "IC50", "setting": "[1]", "result": "> 10", "unit": "nM"},
      {"measurement": "IC50", "setting": "[2]", "result": "> 50", "unit": "nM"}
    ]},
    {"smiles": "CC(C)C1=C2[C@H]3CC[C@@H]4[C@@]5(C)CC[C@H](OC(=O)[C@H]6C[C@@H](C(=O)O)C6(C)C)C(C)(C)[C@@H]5CC[C@@]4(C)[C@]3(C)CC[C@@]2(NC(=O)N2CCC[C@H]2c2ncc(-c3ccccc3)[nH]2)CC1=O", "note": "[Example 3, (1R,3S)-3-((((3aR,5aR,5bR,7aR,9S,11aR,11bR,13aS)-1-isopropyl-5a,5b,8,8,11a-pentamethyl-2-oxo-3a-((S)-2-(5-phenyl-1H-imidazol-2-yl)pyrrolidine-1-carboxamido)-3,3a,4,5,5a,5b,6,7,7a,8,9,10,11,11a,11b,12,13,13a-octadecahydro-2H-cyclopenta[a]chrysen-9-yl)oxy)carbonyl)-2,2-dimethylcyclobutane-1-carboxylic acid]", "values": [
      {"measurement": "IC50", "setting": "[1]", "result": "5.01 to 10", "unit": "nM"},
      {"measurement": "IC50", "setting": "[2]", "result": "30 to 50", "unit": "nM"}
    ]},
    {"smiles": "CC(C)C1=C2[C@H]3CC[C@@H]4[C@@]5(C)CC[C@H](OC(=O)[C@H]6C[C@@H](C(=O)O)C6(C)C)C(C)(C)[C@@H]5CC[C@@]4(C)[C@]3(C)CC[C@@]2(NC(=O)NC(C)(C)c2ccc(Cl)cc2)CC1=O", "note": "[Example 5, (1R,3S)-3-((((3aR,5aR,5bR,7aR,9S,11aR,11bR,13aS)-3a-(3-(2-(4-chlorophenyl)propan-2-yl)ureido)-1-isopropyl-5a,5b,8,8,11a-pentamethyl-2-oxo-3,3a,4,5,5a,5b,6,7,7a,8,9,10,11,11a,11b,12,13,13a-octadecahydro-2H-cyclopenta[a]chrysen-9-yl)oxy)carbonyl)-2,2-dimethylcyclobutane-1-carboxylic acid]", "values": [
      {"measurement": "IC50", "setting": "[1]", "result": "< 5", "unit": "nM"},
      {"measurement": "IC50", "setting": "[2]", "result": "< 30", "unit": "nM"}
    ]},
    {"smiles": "CC(C)C1=C2[C@H]3CC[C@@H]4[C@@]5(C)CC[C@H](OC(=O)[C@H]6C[C@@H](C(=O)O)C6(C)C)C(C)(C)[C@@H]5CC[C@@]4(C)[C@]3(C)CC[C@@]2(NC(=O)NCc2ccc(Cl)cc2)CC1=O", "note": "[Example 7, (1R,3S)-3-((((3aR,5aR,5bR,7aR,9S,11aR,11bR,13aS)-3a-(3-(4-chlorobenzyl)ureido)-1-isopropyl-5a,5b,8,8,11a-pentamethyl-2-oxo-3,3a,4,5,5a,5b,6,7,7a,8,9,10,11,11a,11b,12,13,13a-octadecahydro-2H-cyclopenta[a]chrysen-9-yl)oxy)carbonyl)-2,2-dimethylcyclobutane-1-carboxylic acid]", "values": [
      {"measurement": "IC50", "setting": "[1]", "result": "5.01 to 10", "unit": "nM"},
      {"measurement": "IC50", "setting": "[2]", "result": "30 to 50", "unit": "nM"}
    ]},
    {"smiles": "CC(C)C1=C2[C@H]3CC[C@@H]4[C@@]5(C)CC[C@H](OC(=O)[C@H]6C[C@@H](C(=O)O)C6(C)C)C(C)(C)[C@@H]5CC[C@@]4(C)[C@]3(C)CC[C@@]2(NC(=O)NC2(c3ccc(Cl)cc3)CC2)CC1=O", "note": "[Example 4, (1R,3S)-3-((((3aR,5aR,5bR,7aR,9S,11aR,11bR,13aS)-3a-(3-(1-(4-chlorophenyl)cyclopropyl)ureido)-1-isopropyl-5a,5b,8,8,11a-pentamethyl-2-oxo-3,3a,4,5,5a,5b,6,7,7a,8,9,10,11,11a,11b,12,13,13a-octadecahydro-2H-cyclopenta[a]chrysen-9-yl)oxy)carbonyl)-2,2-dimethylcyclobutane-1-carboxylic acid]", "values": [
      {"measurement": "IC50", "setting": "[1]", "result": "< 5", "unit": "nM"},
      {"measurement": "IC50", "setting": "[2]", "result": "> 50", "unit": "nM"}
    ]},
    {"smiles": "Cc1nnc(C(C)C)n1C1CC2CCC(C1)N2C(=O)N[C@@]12CC[C@]3(C)[C@H](CC[C@@H]4[C@@]5(C)CC[C@H](OC(=O)[C@H]6C[C@@H](C(=O)O)C6(C)C)C(C)(C)[C@@H]5CC[C@]43C)C1=C(C(C)C)C(=O)C2", "note": "(stereo partly drawn) [Example 8, (1R,3S)-3-((((3aR,5aR,5bR,7aR,9S,11aR,11bR,13aS)-1-isopropyl-3a-((1R,3S,5S)-3-(3-isopropyl-5-methyl-4H-1,2,4-triazol-4-yl)-8-azabicyclo[3.2.1]octane-8-carboxamido)-5a,5b,8,8,11a-pentamethyl-2-oxo-3,3a,4,5,5a,5b,6,7,7a,8,9,10,11,11a,11b,12,13,13a-octadecahydro-2H-cyclopenta[a]chrysen-9-yl)oxy)carbonyl)-2,2-dimethylcyclobutane-1-carboxylic acid]", "values": [
      {"measurement": "IC50", "setting": "[1]", "result": "5.01 to 10", "unit": "nM"},
      {"measurement": "IC50", "setting": "[2]", "result": "> 50", "unit": "nM"}
    ]}
  ]
}
